The source made the active and inactive calls. The calls are words filed in the database; no cut-off is given here.
Columns and labels:
[1] = test system: 4T1; test: Cytotoxicity against mouse 4T1 cells assessed as reduction in cell viability incubated for 24 hrs by CCK-8 assay; assay type: functional, cell-based; settings: 4T1, 24 h
[2] = test system: RAW264.7; test: Inhibition of AKT phosphorylation in mouse RAW264.7 cells at 1 uM incubated for 1 to 12 hrs by Western blot analysis relative to control; assay type: cell-based; settings: time 1-12 hrs
[3] = test system: THP-1; test: Induction of apoptosis against human THP-1 cells assessed as necrotic cells at 1 uM measured for 24 hrs by Annexin V-FITC/propidium iodide staining based flow cytometry (reference value: 0.316%); assay type: functional
[4] = target: T1, Phosphatidylinositol 4,5-bisphosphate 3-kinase catalytic subunit delta isoform (Homo sapiens, UniProt O00329); test: Antagonist activity at PI3Kdelta (unknown origin) using PIP2 as substrate in presence of ATP incubated for 30 to 60 mins by ADP-glo based luminescence assay
T1 sequence (O00329 whole entry): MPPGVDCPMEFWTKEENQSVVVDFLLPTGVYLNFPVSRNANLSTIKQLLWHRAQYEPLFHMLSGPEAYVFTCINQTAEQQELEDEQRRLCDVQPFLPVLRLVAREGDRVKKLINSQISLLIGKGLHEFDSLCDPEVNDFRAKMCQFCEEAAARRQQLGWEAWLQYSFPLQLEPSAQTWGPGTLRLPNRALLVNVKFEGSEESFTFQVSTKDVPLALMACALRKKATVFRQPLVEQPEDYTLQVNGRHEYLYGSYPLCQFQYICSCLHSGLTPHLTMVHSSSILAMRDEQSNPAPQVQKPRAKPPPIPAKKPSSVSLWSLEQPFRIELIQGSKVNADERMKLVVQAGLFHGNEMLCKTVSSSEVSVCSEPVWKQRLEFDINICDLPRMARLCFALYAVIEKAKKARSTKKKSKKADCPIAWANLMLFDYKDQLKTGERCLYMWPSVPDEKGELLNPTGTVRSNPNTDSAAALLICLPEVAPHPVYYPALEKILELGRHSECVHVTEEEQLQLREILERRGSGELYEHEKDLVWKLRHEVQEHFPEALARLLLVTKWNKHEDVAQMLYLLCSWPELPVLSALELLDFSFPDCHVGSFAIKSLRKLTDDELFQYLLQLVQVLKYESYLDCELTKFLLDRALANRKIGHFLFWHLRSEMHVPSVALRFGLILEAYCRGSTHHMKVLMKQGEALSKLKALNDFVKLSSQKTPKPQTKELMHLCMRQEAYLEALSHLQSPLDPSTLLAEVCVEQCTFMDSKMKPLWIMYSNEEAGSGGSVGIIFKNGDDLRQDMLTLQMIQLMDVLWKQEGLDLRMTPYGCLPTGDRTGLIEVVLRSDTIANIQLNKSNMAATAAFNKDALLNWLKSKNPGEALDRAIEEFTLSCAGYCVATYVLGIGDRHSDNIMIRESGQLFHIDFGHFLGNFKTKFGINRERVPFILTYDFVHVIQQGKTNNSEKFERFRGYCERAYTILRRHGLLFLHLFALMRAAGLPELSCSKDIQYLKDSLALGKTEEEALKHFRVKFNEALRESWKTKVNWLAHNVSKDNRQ

[5] = test system: A549; test: Cytotoxicity against human A549 cells assessed as reduction in cell viability incubated for 24 hrs by CCK-8 assay; assay type: functional, cell-based; settings: A549, 24 h
[6] = test system: Jurkat; test: Induction of apoptosis against human Jurkat cells assessed as late apoptotic cells at 0.1 uM measured for 24 hrs by Annexin V-FITC/propidium iodide staining based flow cytometry (reference value: 0.00%); assay type: functional
[7] = test system: Jurkat; test: Upregulation of phosphorylated p38 protein expression in human Jurkat cells at 1 uM measured for 3 hrs; assay type: functional, cell-based
[8] = test system: Jurkat; test: Induction of apoptosis against human Jurkat cells assessed as viable cells at 0.1 uM measured for 24 hrs by Annexin V-FITC/propidium iodide staining based flow cytometry (reference value: 94.2 %); assay type: functional; settings: read-out: Activity
[9] = test system: THP-1; test: Induction of apoptosis against human THP-1 cells assessed as early apoptotic cells at 10 uM measured for 24 hrs by Annexin V-FITC/propidium iodide staining based flow cytometry (reference value: 10.3%); assay type: functional
[10] = test system: THP-1; test: Induction of apoptosis against human THP-1 cells assessed as early apoptotic cells at 1 uM measured for 24 hrs by Annexin V-FITC/propidium iodide staining based flow cytometry (reference value: 10.3%); assay type: functional
[11] = test system: THP-1; test: Induction of apoptosis against human THP-1 cells assessed as late apoptotic cells at 10 uM measured for 24 hrs by Annexin V-FITC/propidium iodide staining based flow cytometry (reference value: 3.70%); assay type: functional
[12] = test system: RAW264.7; test: Inhibition of AKT phosphorylation in mouse RAW264.7 cells incubated for 1 to 12 hrs by Western blot analysis relative to control; assay type: cell-based; settings: dose 0.1-10 µM, time 1-12 hrs
[13] = test system: THP-1; test: Induction of apoptosis against human THP-1 cells assessed as necrotic cells at 0.1 uM measured for 24 hrs by Annexin V-FITC/propidium iodide staining based flow cytometry (reference value: 0.316%); assay type: functional
[14] = test system: Jurkat; test: Induction of apoptosis against human Jurkat cells assessed as early apoptotic cells at 10 uM measured for 24 hrs by Annexin V-FITC/propidium iodide staining based flow cytometry (reference value: 5.76%); assay type: functional
[15] = test system: Jurkat; test: Induction of apoptosis against human Jurkat cells assessed as necrotic cells at 0.1 uM measured for 24 hrs by Annexin V-FITC/propidium iodide staining based flow cytometry (reference value: 0.00%); assay type: functional
[16] = test system: B16-F10; test: Cytotoxicity against mouse B16-F10 cells assessed as reduction in cell viability incubated for 24 hrs by CCK-8 assay; assay type: functional, cell-based; settings: B16-F10, 24 h
[17] = test system: Jurkat; test: Upregulation of phosphorylated ERK1/2 protein expression in human Jurkat cells measured for 3 hrs; assay type: functional, cell-based; settings: dose 0.1-10 µM
[18] = test system: THP-1; test: Induction of apoptosis against human THP-1 cells assessed as viable cells at 1 uM measured for 24 hrs by Annexin V-FITC/propidium iodide staining based flow cytometry (reference value: 85.6%); assay type: functional; settings: read-out: Activity
[19] = target: T2, Serine/threonine-protein kinase AKT (Homo sapiens) (UniProt P31751+Q9Y243+P31749); test: Inhibition of AKT phosphorylation in human Jurkat cells at 1 uM incubated for 1 to 12 hrs by Western blot analysis relative to control; assay type: cell-based; settings: time 1-12 hrs
[20] = test system: THP-1; test: Induction of apoptosis against human THP-1 cells assessed as late apoptotic cells at 1 uM measured for 24 hrs by Annexin V-FITC/propidium iodide staining based flow cytometry (reference value: 3.70%); assay type: functional
[21] = test system: Jurkat; test: Upregulation of phosphorylated ERK1/2 protein expression in human Jurkat cells at 10 uM measured for 3 hrs; assay type: functional, cell-based
[22] = test system: THP-1; test: Cytotoxicity against human THP-1 cells assessed as reduction in cell viability incubated for 24 hrs by CCK-8 assay; assay type: functional, cell-based; settings: THP-1, 24 h
[23] = test system: Huh-7; test: Cytotoxicity against human Huh-7 cells assessed as reduction in cell viability incubated for 24 hrs by CCK-8 assay; assay type: functional, cell-based; settings: Huh-7, 24 h
[24] = test system: Jurkat; test: Induction of apoptosis against human Jurkat cells assessed as early apoptotic cells at 0.1 uM measured for 24 hrs by Annexin V-FITC/propidium iodide staining based flow cytometry (reference value: 5.76%); assay type: functional
[25] = target: T2, Serine/threonine-protein kinase AKT (Homo sapiens); test: Inhibition of AKT phosphorylation in human THP-1 cells incubated for 1 to 12 hrs by Western blot analysis relative to control; assay type: cell-based; settings: dose 0.1-10 µM, time 1-12 hrs

T2 sequence (P31749 whole entry, looked up): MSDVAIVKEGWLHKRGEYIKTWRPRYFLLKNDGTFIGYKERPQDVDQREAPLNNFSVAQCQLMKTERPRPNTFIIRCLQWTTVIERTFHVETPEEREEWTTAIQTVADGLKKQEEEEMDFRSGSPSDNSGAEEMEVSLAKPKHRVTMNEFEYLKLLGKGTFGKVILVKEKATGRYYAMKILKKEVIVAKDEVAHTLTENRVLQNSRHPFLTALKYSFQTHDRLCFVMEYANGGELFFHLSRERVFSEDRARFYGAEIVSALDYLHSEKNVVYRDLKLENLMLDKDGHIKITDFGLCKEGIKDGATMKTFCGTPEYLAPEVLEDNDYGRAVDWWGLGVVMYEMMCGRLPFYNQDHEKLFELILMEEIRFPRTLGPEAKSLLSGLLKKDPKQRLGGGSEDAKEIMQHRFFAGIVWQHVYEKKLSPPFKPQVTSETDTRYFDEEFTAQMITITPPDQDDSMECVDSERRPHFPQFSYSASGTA
T2 sequence (P31751 whole entry, looked up): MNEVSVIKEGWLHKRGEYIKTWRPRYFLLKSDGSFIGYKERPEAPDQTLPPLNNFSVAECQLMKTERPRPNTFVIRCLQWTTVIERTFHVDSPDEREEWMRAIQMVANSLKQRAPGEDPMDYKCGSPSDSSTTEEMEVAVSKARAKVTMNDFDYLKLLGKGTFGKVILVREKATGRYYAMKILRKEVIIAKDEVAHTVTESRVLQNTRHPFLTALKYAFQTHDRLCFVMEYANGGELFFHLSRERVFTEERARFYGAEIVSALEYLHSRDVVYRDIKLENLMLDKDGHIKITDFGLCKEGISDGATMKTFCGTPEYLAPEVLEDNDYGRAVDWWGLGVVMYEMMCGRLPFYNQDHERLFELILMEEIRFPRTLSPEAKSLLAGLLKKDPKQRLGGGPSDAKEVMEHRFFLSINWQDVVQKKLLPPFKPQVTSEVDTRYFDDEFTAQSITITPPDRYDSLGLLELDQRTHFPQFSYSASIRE
T2 sequence (Q9Y243 whole entry, looked up): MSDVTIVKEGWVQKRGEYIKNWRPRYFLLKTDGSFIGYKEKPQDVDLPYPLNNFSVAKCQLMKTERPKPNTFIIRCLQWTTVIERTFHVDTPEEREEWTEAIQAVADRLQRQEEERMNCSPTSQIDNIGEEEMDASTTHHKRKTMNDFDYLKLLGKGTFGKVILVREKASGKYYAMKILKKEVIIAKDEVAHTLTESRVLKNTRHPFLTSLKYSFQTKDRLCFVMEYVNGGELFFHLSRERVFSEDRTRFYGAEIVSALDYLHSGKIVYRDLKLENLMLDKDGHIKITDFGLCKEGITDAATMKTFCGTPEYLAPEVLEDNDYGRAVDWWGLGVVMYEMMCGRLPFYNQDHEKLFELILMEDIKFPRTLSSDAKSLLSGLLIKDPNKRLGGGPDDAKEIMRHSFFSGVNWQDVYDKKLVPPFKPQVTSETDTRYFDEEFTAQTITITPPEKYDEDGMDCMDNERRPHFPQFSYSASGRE

## COc1ccc(C#Cc2cccc3cc(C(C)Nc4ncnc5[nH]cnc45)n(-c4ccccc4)c(=O)c23)cc1 (stereo not given)
[1]
  IC50: 9.76 µM
[2]
  inhibition: Active
[3]
  Activity: 0.041%
[4]
  IC50: 13.1 nM
[5]
  IC50: > 100 µM
[6]
  Activity: 0.025%
[7]
  Activity: Active
[8]
  viability at 0.1 µM: 66.8%
[9]
  Activity: 24.6%
[10]
  Activity: 35.7%
[11]
  Activity: 14.6%
[12]
  inhibition: Dose-Dependent Effect
[13]
  Activity: 0.125%
[14]
  Activity: 69.7%
[15]
  Activity: 0%
[16]
  IC50: > 100 µM
[17]
  Activity: Dose-Dependent Effect
[18]
  viability at 1 µM: 59.6%
[19]
  inhibition: Active
[20]
  Activity: 4.63%
[21]
  Activity: Active
[22]
  IC50: 7.47 µM
[23]
  IC50: 5.05 µM
[24]
  Activity: 10.9%
[25]
  inhibition: Dose-Dependent Effect

Source: ChEMBL document CHEMBL5252648, “Design, synthesis and bioactivity evaluation of a series of quinazolinone derivatives as potent PI3Kγ antagonist” (Bioorg Med Chem, 2023)
